Source: US20180169045A1, “AMINO ACID COMPOSITIONS AND METHODS FOR THE TREATMENT OF LIVER DISEASES” (AXCELLA HEALTH INC., priority 2016, published 2018)

Assays:
[1] = system: Primary human PMBC derived macrophages; test: LPS-induced IL-6 secretion in primary human monocyte-derived macrophages (ELISA); assay type: cell-based; set-up: IL-6 Measurements, Mean: unit not given here; details: for LPS-induced IL-6 secretion, in words: primary human monocyte-derived macrophages; for IL-6 Measurements, Mean: Donor 1, baseline subtracted values; for IL-6 Measurements Mean (baseline subtracted): LPS 0.15 ng/mL
Experimental: Isolation of Peripheral Blood Mononuclear Cell (PBMC) Unpurified buffy coats (Research Blood Components) were carefully poured into 50 mL centrifuge tubes and diluted with room temperature Dulbecco's Phosphate Buffered Saline (dPBS) with Calcium and Magnesium (Gibco). Diluted buffy coats were further divided into four total 50 mL centrifuge tubes at 20 mL per tube. Lymphocyte Separation Medium (Corning) was carefully pipetted to the bottom of each centrifuge tube. Mixtures were centrifuged at 850×g for 32 minutes at 20° C. with 0 deceleration and acceleration.
CD14+ cells were selected using EasySep™ Human CD14 Positive Selection Kit II ([…] Technologies). Cells were resuspended in cold EasySep™ Buffer ([…] Technologies) at 1×10^8 cells/mL. A total of 100 uL/mL EasySep™ Human CD14 Positive Selection Cocktail II was added to the cell suspension, mixed, and incubated at room temperature for 10 minutes. A total of 100 uL/mL RapidSpheres were added to the mixture and incubated at room temperature for 3 minutes after mixing, then RoboSep buffer was added to bring up the total volume to 10 mL. The mixture in a 15 mL tube was placed in magnet and incubated at room temperature for 3 minutes. Supernatant was discarded and 10 mL fresh EasySep™ buffer was added to 15 mL tube. The addition of RoboSep buffer, mixing, and discarding of supernatant was repeated two more times.
Negative and positive fractions were centrifuged at 490×g for 5 minutes at 20° C. with acceleration of 9, deceleration of 9, and resuspended in DMEM (Gibco) and 10% Heat Inactivated Fetal Bovine Serum (Atlanta Bio) and Penicillin/Streptomycin. Cells were counted and centrifuged again at 490×g for 5 minutes at 20° C. with acceleration of 9, deceleration of 9. After centrifugation, cell were resuspended in DMEM (Gibco) and 10% Heat Inactivated Fetal Bovine Serum (Atlanta Bio) and Penicillin/Streptomycin containing 500 U/mL […] and plated at 1-2×10^6 cells/mL on 10 cm tissue culture plates. Cells were kept in 37° C., 5% CO2 in between feedings/harvest.
Cells were fed every 3-4 days by removing media and unattached cells, centrifuging at 490×g for 5 minutes at 20 C with acceleration of 9, deceleration of 9, and resuspending in fresh DMEM (Gibco) and 10% Heat Inactivated Fetal Bovine Serum (Atlanta Bio) and Penicillin/Streptomycincontaining 500 U/mL GM-CSF. Resuspended cells were seeded back onto 10 cm tissue culture plates and incubated at 37° C., 5% CO2.
After complete cell attachment, culture supernatant was removed and cultures were washed 1× with 5 mL PBS. A total of 3 mL room temperature Cellstripper was added and cultures were incubated at 37° C., 5% CO2 for approximately 10 minutes until cells were rounded and beginning to detach. Cell scraper was used to completely detach cells from plate. Collected cell were spun down at 490 g for 5 min at room temperature and resuspended in 10% DMSO in Heat Inactivated Fetal Bovine Serum and immediately frozen in −80 C.
Primary human PMBC derived macrophages were seeded on day 0 at 3.0E4 cells per well in 96-well microplates (ThermoFisher) in Dulbecco's Modified Eagle Medium (DMEM) (Gibco) supplemented with penicillin-streptomycin (Hyclone) and 10% heat inactivated fetal bovine serum (HI-FBS) (Atlanta Bio) and incubated overnight at 37° C., 5% CO2. On day 1, cells were washed once with 150 uL per well DPBS (Gibco) and treated with 75 uL of: • a. Amino acid free DMEM (US Biologicals) containing a defined custom amino acid concentration based on the mean physiological concentrations in blood based on values published in the Human Metabolome Database (HMDB), with 6 mM glucose, 1 mM sodium pyruvate, 10 mM HEPES, 0.2% primocin (InVivoGen); or • b. The same medium described above with one amino acid at various concentrations including complete dropout. […]

[2] = system: Primary human hepatic stellate cells; test: TGFβ1-induced Col1a1 gene expression in primary human hepatic stellate cells (RT-qPCR); assay type: cell-based; details: for Col1a1 gene expression, in words: primary human hepatic stellate cells from three donors, 3 ng/mL TGFβ1, 24 h
Experimental: Primary human hepatic stellate cells were obtained from Samsara Sciences based on the following criteria for selecting donors: adult age (between 18 and 50 years), normal BMI (>18.5 and <25), and absence of confounding liver disease. Cells grown in Complete HSC Medium to ˜80% confluence in T75 or T150 flasks below passage 10 were seeded into sterile, collagen I coated, 96-well optical plastic microplates (ThermoScientific, 152036) at 6000 cells per well ([…]) and incubated overnight at 37° C., 5% CO2 in a humidified incubator in DMEM with 2% Fetal Bovine Serum and 1% Antibiotic-Antimycotic.
After the overnight incubation, plates were removed from the incubator and the medium was gently pipetted off and washed twice with 150 μL per well DPBS. The DPBS was removed and the pretreatment medium (±single amino acid dropout, 1×HMDB DMEM+1% Antibiotic-Antimycotic, 10 mM HEPES, ±supplemental amino acid dose; see experiment for medium composition) was applied to the cells at 150 μL per well. Plates were returned to the incubator for 10.5 hours.
After 10.5 hour pretreatment, the medium was removed from the cells, and the same pretreatment medium, now supplemented with 3 ng/mL TGFβ1, was applied. Each plate contained 3 ng/mL TGFβ1 in 1× human plasma amino acid (HMDB or PAA) concentration medium, 0 ng/mL in 1×HMDB, and 3 ng/mL TGFβ1+20 μM Silybin in 1×HMDB to serve as controls. Plates were then incubated for 24 hours at 37° C., 5% CO2.
After 24 hour stimulus, supernatant was removed and frozen at −80° C. in two separate aliquots. The cells were then washed with 125 μL per well Buffer FCW (FastLane Cell Multiplex NR Kit, Qiagen, 216713). The wash buffer was immediately removed and 50 μL of Cell Processing Mix (containing genomic DNA Wipeout buffer) was applied to lyse cells, incubating for 10 minutes at room temperature. RNA lysate was then transferred to 96-well qPCR plates, sealed, and gDNA was digested on thermal cycler at 75° C. for 5 minutes. RNA lysate was frozen at −80° C.
Each 20 μL one-step RT-qPCR reaction contained 4 μL of RNA lysate. Gene expression of Col1a1, Timp2, and Gapdh were multiplexed using the HEX, Cy5, and FAM fluorescent channels, respectively, with commercially available primer-probe mixes (the Human Col1a1 Primer-Probe Set, HEX; the Human Timp2 Primer-Probe Set, Cy5; and the Human Gapdh Primer-Probe Set, FAM from IDT). Gene expression was evaluated using the ΔΔCq method within each single amino acid dropout and supplementation by normalizing to its own 1×HMDB concentration.

SMILES: N=C(N)NCCC[C@H](N)C(=O)O [Arginine, L-Arginine]
- LPS-induced IL-6 secretion, in words ([1]; Donor 1, 0.15 ng/mL LPS): increased
- Col1a1 gene expression, in words [2]: did not significantly change

SMILES: NC(=O)CC[C@H](N)C(=O)O [Glutamine, L-Glutamine]
- IL-6 Measurements, Mean ([1]; Conc. 3747 μM): 291.5443
- IL-6 Measurements, Mean ([1]; Conc. 11242 μM): 397.1745
- IL-6 Measurements, Mean ([1]; Conc. 22484 μM): 440.1437
- IL-6 Measurements Mean (baseline subtracted) ([1]; Donor 3, Conc. 749 μM (baseline)): 3.79E−14
- IL-6 Measurements Mean (baseline subtracted) ([1]; Donor 3, Conc. 3747 μM): 25.35
- IL-6 Measurements Mean (baseline subtracted) ([1]; Donor 3, Conc. 11242 μM): 98.4903
- IL-6 Measurements Mean (baseline subtracted) ([1]; Donor 3, Conc. 22484 μM): 108.5158
- LPS-induced IL-6 secretion, in words ([1]; Donor 1, 0.15 ng/mL LPS): increased
- LPS-induced IL-6 secretion, in words ([1]; Donor 2, 0.15 ng/mL LPS): increased
- LPS-induced IL-6 secretion, in words ([1]; Donor 3, 0.15 ng/mL LPS): significantly increased
- Col1a1 gene expression, in words [2]: decreased Col1a1 gene expression in two of three donors

SMILES: CC[C@H](C)[C@H](N)C(=O)O [Isoleucine, L-Isoleucine]
- IL-6 Measurements, Mean ([1]; Conc. 1328 μM): 25.98
- IL-6 Measurements, Mean ([1]; Conc. 3320 μM): −15.8843
- IL-6 Measurements, Mean ([1]; Conc. 6639 μM): −218.332
- IL-6 Measurements Mean (baseline subtracted) ([1]; Donor 3, Conc. 66 μM (baseline)): −6.69
- IL-6 Measurements Mean (baseline subtracted) ([1]; Donor 3, Conc. 1328 μM): −28.9897
- IL-6 Measurements Mean (baseline subtracted) ([1]; Donor 3, Conc. 6639 μM): −16.3663
- Col1a1 gene expression, in words [2]: did not significantly change

SMILES: CC(C)C[C@H](N)C(=O)O [Leucine, L-Leucine]
- IL-6 Measurements, Mean ([1]; Conc. 3054 μM): 244.9743
- IL-6 Measurements, Mean ([1]; Conc. 7635 μM): −69.9873
- IL-6 Measurements, Mean ([1]; Conc. 15270 μM): 84.46
- LPS-induced IL-6 secretion, in words ([1]; Donor 2, 0.15 ng/mL LPS): increased
- Col1a1 gene expression, in words [2]: did not significantly change
- Col1a1 Fold Expression Relative to Control, Mean ([2]; second donor, normalized to Gapdh, Conc. 153 μM (baseline)): 1.01 fold

SMILES: CC(=O)N[C@@H](CS)C(=O)O [N-acetylcysteine]
- IL-6 Measurements, Mean ([1]; Conc. 5 X): 308.1772
- IL-6 Measurements, Mean ([1]; Conc. 10 X): −121.142
- IL-6 Measurements, Mean ([1]; Conc. 20 X): −553.802
- IL-6 Measurements, Mean ([1]; Conc. 40 X): −914.194
- IL-6 Measurements Mean (baseline subtracted) ([1]; Donor 2, Conc. 0 X (baseline)): −2.4E−15
- IL-6 Measurements Mean (baseline subtracted) ([1]; Donor 2, Conc. 20 X): −24.9999
- IL-6 Measurements Mean (baseline subtracted) ([1]; Donor 3, Conc. 0 X (baseline)): −9.5E−15
- IL-6 Measurements Mean (baseline subtracted) ([1]; Donor 3, Conc. 5 X): −70.3269
- IL-6 Measurements Mean (baseline subtracted) ([1]; Donor 3, Conc. 10 X): −103.586
- IL-6 Measurements Mean (baseline subtracted) ([1]; Donor 3, Conc. 20 X): −122.656
- IL-6 Measurements Mean (baseline subtracted) ([1]; Donor 3, Conc. 40 X): −140.851
- LPS-induced IL-6 secretion, in words ([1]; Donor 1, 0.15 ng/mL LPS): significantly reduced
- LPS-induced IL-6 secretion, in words ([1]; Donor 2, 0.15 ng/mL LPS): significantly reduced
- LPS-induced IL-6 secretion, in words ([1]; Donor 3, 0.15 ng/mL LPS): significantly reduced
- Col1a1 gene expression, in words [2]: significantly reduced Col1a1 gene expression in all three donors

SMILES: CC(C)[C@H](N)C(=O)O [Valine, L-Valine]
- IL-6 Measurements, Mean ([1]; Conc. 4684 μM): −85.9843
- IL-6 Measurements, Mean ([1]; Conc. 11710 μM): −97.25
- IL-6 Measurements, Mean ([1]; Conc. 23420 μM): −106.268
- IL-6 Measurements Mean (baseline subtracted) ([1]; Donor 3, Conc. 234 μM (baseline)): 4.26E−14
- IL-6 Measurements Mean (baseline subtracted) ([1]; Donor 3, Conc. 4684 μM): −30.0609
- IL-6 Measurements Mean (baseline subtracted) ([1]; Donor 3, Conc. 11710 μM): −43.8022
- IL-6 Measurements Mean (baseline subtracted) ([1]; Donor 3, Conc. 23420 μM): −29.2004
- Col1a1 gene expression, in words [2]: did not significantly change
